In the NIST ThermoML archive (doi:10.1021/acs.jced.9b00399):

How the values were obtained:
[1] = Gas, isochoric method
[2] = xn = mol fraction of the nth substance listed; details: Gas, isochoric method, x1 = 0.6992

O [water]
[1]
Details	mass density [kg/m3]
724.1 K, 15981 kPa	58.3
773.1 K, 17804 kPa	58.58
826.1 K, 19727 kPa	58.95
877.1 K, 21161 kPa	58.02
927.1 K, 22542 kPa	57.4

[HH] [hydrogen]
[1]
Details	mass density [kg/m3]
722.4 K, 20262 kPa	6.45
733.6 K, 20559 kPa	6.449
743.1 K, 20811 kPa	6.447
753.6 K, 21086 kPa	6.447
763.9 K, 21370 kPa	6.445
773.4 K, 21625 kPa	6.445
784.3 K, 21917 kPa	6.444
792.8 K, 22153 kPa	6.443
803.8 K, 22451 kPa	6.442
812.9 K, 22702 kPa	6.442
822.2 K, 22963 kPa	6.441
834.3 K, 23222 kPa	6.422
844.3 K, 23469 kPa	6.412
854.7 K, 23640 kPa	6.381
863.3 K, 23818 kPa	6.366
874.1 K, 24069 kPa	6.354
883.3 K, 24272 kPa	6.344
892.3 K, 24413 kPa	6.337
904.5 K, 24668 kPa	6.324
914.1 K, 24899 kPa	6.319
924 K, 25112 kPa	6.313

[HH] [hydrogen] + O=C=O
[2]
Details	mass density [kg/m3]
673.4 K, 20652 kPa	50.77
683.6 K, 20986 kPa	50.78
693.5 K, 21304 kPa	50.79
703.3 K, 21638 kPa	50.85
713.9 K, 21981 kPa	50.87
723.3 K, 22282 kPa	50.87
733.9 K, 22610 kPa	50.86
743.9 K, 22909 kPa	50.82
753.6 K, 23216 kPa	50.82

N#N [nitrogen]
[1]
Details	mass density [kg/m3]
727.3 K, 20352 kPa	86.58
805.8 K, 22603 kPa	86.28
874.6 K, 24580 kPa	86.14
927.1 K, 26090 kPa	86.03
